According to patent US20100093872A1, “STABLE AQUEOUS FORMULATIONS OF WATER INSOLUBLE OR POORLY SOLUBLE DRUGS” (Erimos Pharmaceuticals LLC, priority 2008, published 2010):
In brackets after ≈: the same amount, converted by molar mass. Like-named read-outs stand apart in the source and are kept apart here.

Key:
[1] = cited from earlier work
[2] = physchem; assay type: physicochemical; conditions: organic solvent or mixture, thermodynamic from solid
Description: The solubility of terameprocol was tested in various solvents and dispersed systems. An excess of the solid API (20-50 mg) was shaken with 1 mL of a given solvent overnight (˜16 hr) at room temperature on a gyratory shaker at maximum speed. The samples were filtered through 0.45 μm PVDF filter. The filtrates were diluted to the working linear range (0.06-0.1 mg/mL) of the UV-Vis method appropriately in acetonitrile and analyzed for terameprocol concentration using a UV-Vis spectrophotometer. The equation of the standard curve was y=16.70x+0.016 with a R^2=0.999 monitored at 281 nm.
Solubility in PEG 300 increased with increasing temperature with the value being greater than 600 mg/mL at 95° C.

[3] = Determination of optimum temperature requirement (microscopic images of in-process samples); assay type: physicochemical; conditions: for crystals in in-process sample (microscopic image): HPβCD solution, homogenized
Description: A solution of HPβCD was prepared in a 5 L jacketed vessel and heated to aid in dissolution. Terameprocol was added slowly to the HPβCD solution. The in-line homogenizer was utilized and the temperature was maintained at 40° C. for 2 hours. […] The temperature was increased to 60° C. with homogenization and held for one hour. […] The temperature was increased to 80° C. under homogenization for 2 hours. It was noted that due to heating in a closed vessel, the system was slightly pressurized due to the increase in operating temperature. […] The experiment was repeated but the system was taken to temperature above the melting point (>104° C.) with homogenization in the same closed vessel. The vessel was then cooled and samples taken. […] It was concluded the optimum temperature requirement was that above the drug's melting point.

[4] = physchem; assay type: physicochemical; conditions: water
Description: Terameprocol is an extremely difficult drug to formulate because it is effectively insoluble in all of the commonly used aqueous media used for intravenous delivery of pharmaceuticals. Terameprocol's solubility in an aqueous solvent, at all pH's in water, 0.9% saline and 5% dextrose is <0.01 mg/mL, a level below the limit of quantitation of the RP-HPLC assay used for evaluation. In order to develop a formulation suitable for clinical use, it is preferred that the solubility of the drug be equal to or exceed 5 mg/mL. At concentrations below this limit, large volumes of solvent are required to deliver the drug. The extremely low solubility of terameprocol presents major formulation challenges using conventional formulation techniques such as the use of organic solvents, surfactants or extremes of pH. These conventional formulation approaches would require the administration of large concentrations of co-solvents and may render the solution viscous and/or difficult to handle during reconstitution in the bedside or pharmacy. […] The use of conventional approaches have met with limited success when formulating terameprocol for intravenous parenteral administration.

[5] = Chemical stability of terameprocol under stress (base, acid, heat, light, oxidizer, water); assay type: physicochemical; conditions: subjected to base, oxidizer, and water
Excerpt: Terameprocol is a small molecule with a molecular weight of 358.5 g/mol; it is hydrophobic, and non-ionic.

[6] = Accelerated stability of 60 L lot terameprocol/HPβCD samples; assay type: physicochemical; conditions: 40° C/75% RH for 1 month; 60 L lots; no pH adjustment with/without homogenization, or pH 7 without homogenizer, with/without autoclaving
Description: The 5 L terameprocol formulation process was scaled up to 60 L lots. The 60 L lots were conducted to (a) evaluate the criticality of using an homogenizer to promote complexation of the terameprocol and HPβCD (b) evaluate the stability of the terameprocol/HPβCD complex upon pH adjustment after compounding using NaOH and/or HCl (c) investigate the stability after autoclaving up to 30 minutes at 121° C. of the non pH adjusted, pH adjusted, homogenized, and non-homogenized terameprocol samples (d) optimize the 5 L formulation process to 60 L in order to support a clinical scale-up to 373 L.
It was determined that with proper tank design using an aggressive mixer introduced enough energy into the system where the homogenizer may not be critical for complexation. Samples of terameprocol that had 1) no pH adjustment with and without homogenization and 2) pH adjusted to 7 with no homogenizer and with and without autoclaving were stable at the accelerated condition of 40° C/75% RH for 1 month.

[7] = Stability of terameprocol/HPβCD 5 L formulation with NaCl and after autoclaving (precipitation); assay type: physicochemical
Description: The 5 L experiments were conducted to (a) explore the acceptable temperature range indicated in ‘b’ above required for forming terameprocol cyclodextrin complexes, (b) evaluate the stability of terameprocol/HPβCD upon autoclaving: 15 minutes vs. 30 minutes at 121° C., (c) evaluate the compatibility of terameprocol/HPβCD with 0.5% (w/v) sodium chloride (NaCl), and (d) develop a process which could be scaled to the next engineering size of 60 L. The acceptable temperature required for complexation of terameprocol and cyclodextrin (HPβCD) was determined to be above the melting point of terameprocol (>104° C.). The resulting terameprocol/HPβCD formulation was stable for 4 weeks at room temperature (RT), 4 weeks under refrigerated conditions, and 2 weeks under accelerated conditions (40° C.) for all sample types evaluated: non-autoclaved, autoclaved up to 30 minutes, and upon spiking with NaCl as shown in Table 2. The compatibility of terameprocol/HPβCD with NaCl supports flushing of the IV lines with 0.9% Saline to keep lines patent if required.

[8] = Achievable terameprocol concentration in HPβCD formulations without co-solvent (bench-scale development); assay type: physicochemical
Description: The inventors of the present invention have made the surprising discovery that terameprocol can be formulated in cyclodextrins without the need for elaborate chemical solvent matrices and that lead to increases in the solubility of water insoluble drugs through the formation of a stable inclusion complex. […] Details of this will be discussed later.
Bench-top (10 mL) to 5 L scale development studies were performed to remove PEG 300 from terameprocol/HPβCD formulations. Conclusions from the bench scale experiments were (a) 7 mg/mL is the maximum achievable terameprocol concentration in an IV formulation containing 30-40% HPβCD (b) incorporating the drug at high temperatures (80° C. or greater) is an important step in forming the inclusion complex (c) high mechanical energy must be provided when cooling the complex to approximately ambient condition once formed. There were differences in equipment used at the 10 mL vs. 5 L scale. The 10 mL scale utilized glass beakers with a sonicator for incorporation, while the 5 L experiments were conducted with a 10 L stainless steel jacketed vessel equipped with a recirculating heating bath, overhead air powered blade mixer and an in-line homogenizer.

[9] = 0.5% w/v NaCl, autoclaved 15 min at 121° C.
[10] = 0.5% w/v NaCl, autoclaved 30 min at 121° C.
[11] = Unspiked, autoclaved 15 min at 121° C.
[12] = Unspiked, autoclaved 30 min at 121° C.

In the case of `CC(O)COC[C@H]1O[C@@H]2O[C@H]3[C@H](O)[C@@H](O)[C@@H](O[C@H]4[C@H](O)[C@@H](O)[C@@H](O[C@H]5[C@H](O)[C@@H](O)[C@@H](O[C@H]6[C@H](O)[C@@H](O)[C@@H](O[C@H]7[C@H](O)[C@@H](O)[C@@H](O[C@H]8[C@H](O)[C@@H](O)[C@@H](O[C@H]1[C@H](O)[C@H]2O)O[C@@H]8COCC(C)O)O[C@@H]7COCC(C)O)O[C@@H]6COCC(C)O)O[C@@H]5COCC(C)O)O[C@@H]4COCC(C)O)O[C@@H]3COCC(C)O` (stereo partly drawn) [HPβCD, hydroxypropyl beta-cyclodextrin], the stability during sterilization ([1]; 121° C. for 15 minutes) is given as “stable”, the hydrolysis ([1]; extreme acidic conditions of pH 2 at 60° C.) is given as “slight hydrolysis” and the hydrolysis ([1]; pH 4, at 40° C. after 24 hrs) is given as “No significant hydrolysis”.
In the case of `COc1ccc(C[C@@H](C)[C@@H](C)Cc2ccc(OC)c(OC)c2)cc1OC` [terameprocol, tetra-o-methyl nordihydroguaiaretic acid], the solubility at 16 h ([2]; 25 °C, solubility in pharmaceutically relevant solvents) is reported as < 10 mg/mL, the solubility ([2]; 40 °C) is reported as 10.1 mg/mL (≈ 28.2 mM) and the solubility ([2]; 80 °C) is reported as > 400 mg/mL. The solubility ([2]; 95 °C) was > 600 mg/mL, the “crystals in in-process sample (microscopic image)” value (from here on “crystals in in-process sample”) ([3]; 40° C. for 2 hours (FIG. 6-A)) was “numerous terameprocol crystals present” and the “crystals in in-process sample” value ([3]; 60° C. for one hour (FIG. 6-B)) was “presence of crystals was still evident”. For the same compound, the “crystals in in-process sample” value ([3]; 80° C. for 2 hours (FIG. 6-C)) was “significant reduction in crystal formation”, the crystal formation ([3]; processed above the melting point (>104° C.) with homogenization, immediately or after 4 weeks) was “no crystal formation” and the solubility [4] was < 0.01 mg/mL. The stability / degradation [5] was “does not degrade”, the formulation stability [6] was “stable” and the “Precipitation 2-8° C. (4-weeks)” value [7, 9] was “No”. The “Precipitation 40° C. (2-weeks)” value [7, 9] was “No”, the “Precipitation RT (4-weeks)” value [7, 9] was “No” and the “Terameprocol” value [7, 9] was 6.03 mg/mL. For the same compound, the “Precipitation 2-8° C. (4-weeks)” value [7, 10] was “No”, the “Precipitation 40° C. (2-weeks)” value [7, 10] was “No” and the “Precipitation RT (4-weeks)” value [7, 10] was “No”. The “Terameprocol” value [7, 10] was 5.77 mg/mL, the “Precipitation 2-8° C. (4-weeks)” value ([7]; 0.5% w/v NaCl, not autoclaved) was “No” and the “Precipitation 40° C. (2-weeks)” value ([7]; 0.5% w/v NaCl, not autoclaved) was “No”. The “Precipitation RT (4-weeks)” value ([7]; 0.5% w/v NaCl, not autoclaved) was “No”, the “Terameprocol” value ([7]; 0.5% w/v NaCl, not autoclaved) was 5.89 mg/mL and the “Precipitation 2-8° C. (4-weeks)” value [7, 11] was “No”. For the same compound, the “Precipitation 40° C. (2-weeks)” value [7, 11] was “No”, the “Precipitation RT (4-weeks)” value [7, 11] was “No” and the “Terameprocol” value [7, 11] was 5.76 mg/mL. For the same compound, the “Precipitation 2-8° C. (4-weeks)” value [7, 12] was “No”, the “Precipitation 40° C. (2-weeks)” value [7, 12] was “No” and the “Precipitation RT (4-weeks)” value [7, 12] was “No”. For the same compound, the “Terameprocol” value [7, 12] was 5.97 mg/mL, the “Precipitation 2-8° C. (4-weeks)” value ([7]; Unspiked, not autoclaved) was “No” and the “Precipitation 40° C. (2-weeks)” value ([7]; Unspiked, not autoclaved) was “No”. The “Precipitation RT (4-weeks)” value ([7]; Unspiked, not autoclaved) was “No”, the “Terameprocol” value ([7]; Unspiked, not autoclaved) was 5.80 mg/mL and the “maximum achievable terameprocol concentration” value ([8]; IV formulation containing 30-40% HPβCD, no PEG 300, bench scale) was 7 mg/mL. The “concentration obtained on mixing with cyclodextrin in water without solvent” value ([8]; all temperatures below the melting point, or precipitation) was ≤ 7000 µg/mL.
